Tests used:
CB2 receptors = target: T1, CB2 receptors (Rattus norvegicus, UniProt Q9QZN9); assay: Radioreceptor binding, [3H]-CP-55,940 displacement, rat spleen membranes; conditions: 1 nM [3H]-CP55,940
T1 construct: the brain in toto (cerebellum excluded) and the spleen were rapidely dissected; from tissue; host or cells: rat spleen membranes
T1 sequence (Q9QZN9 1-360): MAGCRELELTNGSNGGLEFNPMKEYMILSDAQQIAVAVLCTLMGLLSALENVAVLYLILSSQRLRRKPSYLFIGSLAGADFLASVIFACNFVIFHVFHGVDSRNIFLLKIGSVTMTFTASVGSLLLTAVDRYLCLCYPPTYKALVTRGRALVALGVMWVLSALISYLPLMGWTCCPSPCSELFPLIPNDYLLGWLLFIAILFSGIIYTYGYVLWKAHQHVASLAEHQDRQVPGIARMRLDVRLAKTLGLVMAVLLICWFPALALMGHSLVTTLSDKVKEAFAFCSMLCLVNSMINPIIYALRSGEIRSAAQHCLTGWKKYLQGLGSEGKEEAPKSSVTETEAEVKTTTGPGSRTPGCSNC
Excerpt: (§1) The receptorial binding technique allows indeed to establish if and with what affinity and specificity a determined compound binds itself to a particular receptor. To evaluate the affinity of a determined compound towards a particular receptor, a particular preparation of the tissue wherein the receptors are present is used and the tested compound is made to compete with another compound, treated so as to make it radioactive and of which the affinity for the receptor is known. […] The reading of the radioactivity present in the receptor-compound complex allows furthermore to precisely calculate the compound amount bound to the receptor. By this method it is therefore possible to rapidely identify the affinity of a new compound towards a specific receptor and thus to make predictions on its pharmacological activity. By repeating the same experimental scheme it is possible to evaluate the affinity of the compound towards other kinds of receptors and thus establish the specificity degree.
(§2) Food and water were available ad libitum.
(§3) The animals were sacrificed by cervical dislocation, the brain in toto (cerebellum excluded) and the spleen were rapidely dissected and maintained in ice.
(§4) The tissue was homogenized in 15 volumes (weight/volume) of TME buffer (50 mM Tris, 1 mM EDTA e 3 mM MgCl2, pH 7.4) by an Ultra-Turrax and centrifuged for 10 minutes at 1086×g in a centrifuge cooled at 4° C. The resulting supernatant was centrifuged at 45,000×g for 30 min at 4° C. by using a Beckman SW41 rotor and the final pellet was resuspended in 50 volumes of TME.
(§5) The obtained membranes (50-80 μg of proteins) were incubated in the presence of 1 nM di [^3H]-CP55,940 for 1 h at 30° C. in a final volume of 0.5 ml of TME buffer containing 5 mg/ml of bovine serum albumin (BSA). The non specific binding was measured in the presence of CP55,940 at the 1 μM concentration. […]
(§6) The radioactivity present in the filters was measured by a scintillator spectrophotometer (Tricarb 2100, Packard, Meridien, USA). […]

CB1 receptors [1] = target: T2, CB1 receptors (Rattus norvegicus, UniProt P20272); assay: Radioreceptor binding, [3H]-CP-55,940 displacement, rat brain membranes; set-up: from tissue; host or cells: whole animal (rat), central CB1 receptors of the hypothalamus; conditions: 1 nM [3H]-CP55,940
T2 sequence (P20272 whole entry): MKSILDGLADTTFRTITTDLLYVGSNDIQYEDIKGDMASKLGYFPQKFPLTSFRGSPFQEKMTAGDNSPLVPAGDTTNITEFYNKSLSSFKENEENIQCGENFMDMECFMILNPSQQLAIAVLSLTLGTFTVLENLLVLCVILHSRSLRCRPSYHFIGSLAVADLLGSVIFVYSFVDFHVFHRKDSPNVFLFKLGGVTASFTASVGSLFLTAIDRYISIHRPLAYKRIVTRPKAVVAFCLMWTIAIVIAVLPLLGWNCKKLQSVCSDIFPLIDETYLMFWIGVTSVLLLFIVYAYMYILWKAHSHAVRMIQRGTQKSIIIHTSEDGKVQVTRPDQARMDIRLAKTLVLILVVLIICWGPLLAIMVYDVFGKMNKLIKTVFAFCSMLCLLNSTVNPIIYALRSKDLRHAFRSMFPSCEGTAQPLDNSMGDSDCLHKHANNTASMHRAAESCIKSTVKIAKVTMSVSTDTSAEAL
Excerpt: as §1, §2, §3, §4, §5, §6

CB1 receptors [2] = target: T2, CB1 receptors; assay: Hypothermia test in vivo, compound alone (rectal temperature); set-up: from tissue; host or cells: whole animal (rat), central CB1 receptors of the hypothalamus; conditions: i.p., doses 0.1, 0.5, 1.0, 3.0, 6.0 mg/kg, versus physiological solution (38° C.)
Method: The test was carried out with the compound of the Example 3.1c. Aqueous samples were used wherein the compound of the Example 3.1c was dispersed in water with three drops of Tween 80. Following the above procedure, treatments were carried out with doses (mg compound/kg of body weight) respectively of 0.1; 0.5; 1.0; 3.0; 6.0.

| melting point | Compound | Ki (CB2 receptors) | Ki (CB1 receptors [1]) | effect of the compound as such on body temperature (CB1 receptors [2]) |
| --- | --- | --- | --- | --- |
| 175 to 176 °C | Cc1c(C(=O)Nc2ccccc2)nn(-c2ccc(Cl)cc2Cl)c1-c1ccc(Cl)s1 | – | – | – |
| – | Cc1c(C(=O)NN2CCCCCC2)nn(-c2ccc(Cl)cc2Cl)c1-c1ccc(Cl)s1 [Example 3.1c, N-homopiperidinyl-5-(5-Chloro-thiophen-2-yl)-1-(2′,4′-dichloro-phenyl)-4-methyl-1H-pyrazol-3-carboxamide] | 270 ± 5 nM | 21 ± 1 nM | In none of the examined cases there was a reduction of the body temperature |

From patent US8227620B2, “Pharmaceutical compounds” (Neuroscienze Pharmaness S.C. A.R.L., priority 2004, dated 2012)
